Results: US6727076B2 (priority 1995, dated 2004)
Entries after “also recorded” stand apart in the source; their conditions may differ. Peptide text beside a SMILES is read from it.

How the values were obtained:
T. harzianum DAOM 190830 = assay type: cell-based, Trichoderma harzianum
[1] = system: E. coli 287 (ATCC #11775); assay type: cell-based
[2] = system: E. coli strain 13673 (O157); assay type: cell-based
[3] = system: E. coli strain 11547 (O157:H7); assay type: cell-based
[4] = system: E. coli strain 13671 (O157:H? gur+); assay type: cell-based
[5] = system: E. coli strain 13675 (O157); assay type: cell-based
[6] = system: E. coli strain 14444 (MG1655 xylA); assay type: cell-based
[7] = system: E. coli strain 14443 (MG1655 (FB426)); assay type: cell-based
E. coli MG1655 [8] = assay type: cell-based
[9] = system: E. coli strain 14445 (MG1655 himA); assay type: cell-based
E. coli MG1655 [10] = assay type: cell-based; remark: listed apart in the source

Compound	carbon source utilization result (T. harzianum DAOM 190830)	carbon source utilization result [1]	other results
O=C(O)CC(Br)C(=O)O (stereo not shown) [Bromo succinic acid]	positive	positive	–
O=C[C@H](O)[C@@H](O)[C@H](O[C@@H]1O[C@H](CO)[C@@H](O)[C@H](O)[C@H]1O)[C@H](O)CO [Cellobiose]	positive	negative	–
O=C(O)CC(O)(CC(=O)O)C(=O)O [Citric acid]	positive	negative	–
OC[C@@H](O)C(O)[C@H](O)CO [D-arabitol]	positive	negative	–
O=C(CO)[C@@H](O)[C@H](O)[C@H](O)CO [D-fructose]	positive	positive	–
O=C[C@H](O)[C@@H](O)[C@@H](O)[C@H](O)CO [D-galactose]	positive	positive	–
O=C[C@H](O)[C@@H](O)[C@@H](O)[C@H](O)C(=O)O [D-galacturonic acid]	positive	positive	–
OC[C@@H](O)[C@@H](O)[C@H](O)[C@H](O)CO [D-mannitol]	positive	positive	–
O=C[C@@H](O)[C@@H](O)[C@H](O)[C@H](O)CO [D-mannose]	positive	positive	–
O=C(O)[C@@H](O)[C@@H](O)[C@H](O)[C@@H](O)C(=O)O [D-saccharic acid]	–	–	carbon source utilization, in words [2]: negative; carbon source utilization, in words [3]: negative; carbon source utilization, in words [4]: negative; carbon source utilization, in words [5]: negative
O=C[C@H](O)[C@@H](O)[C@H](O)CO [D-xylose]	–	–	carbon source utilization, in words [6]: negative; carbon source utilization, in words [7]: positive
O=C[C@H](O)[C@@H](O)[C@H](O)[C@H](O)COP(=O)(O)O [Glucose-6-phosphate]	–	positive	suitability as phosphorus source (growth, purple color) (E. coli MG1655 [8]): positive
OCC(O)CO [Glycerol]	positive	positive	–
O=C(O)CO [Glycolic acid]	–	–	carbon source utilization, in words [9]: negative
NCC(=O)N[C@@H](CCC(=O)O)C(=O)O [Glycyl-L-glutamic acid] (H-Gly-Glu-OH)	positive	positive	suitability as nitrogen source (growth, purple color) (E. coli MG1655 [10]): positive
C[C@H](N)C(=O)NCC(=O)O [L-alanyl-glycine] (H-Ala-Gly-OH)	positive	positive	suitability as nitrogen source (growth, purple color) (E. coli MG1655 [10]): positive
O=C[C@H](O)[C@@H](O)[C@@H](O)CO [L-arabinose]	positive	positive	–
N[C@@H](CS)C(=O)O [L-cysteine]	–	–	suitability as nitrogen source (growth, purple color) (E. coli MG1655 [10]): not suitable; suitability as sulfur source (growth, purple color) (E. coli MG1655 [8]): positive
C[C@H](O)[C@@H](O)[C@@H](O)[C@H](O)C=O [L-fucose]	positive	positive	–
CSCC[C@H](N)C(=O)O [L-methionine]	–	–	suitability as nitrogen source (growth, purple color) (E. coli MG1655 [10]): not suitable; suitability as sulfur source (growth, purple color) (E. coli MG1655 [8]): positive
NCCC[C@H](N)C(=O)O [L-ornithine]	positive	–	suitability as nitrogen source (growth, purple color) (E. coli MG1655 [10]): not suitable

Compound	carbon source utilization result (T. harzianum DAOM 190830)	carbon source utilization result [1]	other results
N[C@@H](Cc1ccccc1)C(=O)O [L-phenylalanine]	positive	positive/negative	suitability as nitrogen source (growth, purple color) (E. coli MG1655 [10]): not suitable
O=C1CC[C@@H](C(=O)O)N1 [L-pyroglutamic acid]	positive	positive/negative	suitability as nitrogen source (growth, purple color) (E. coli MG1655 [10]): not suitable
OC[C@H]1O[C@H](O[C@H]2[C@H](O)[C@@H](O)[C@H](O)O[C@@H]2CO)[C@H](O)[C@@H](O)[C@@H]1O [Maltose]	–	positive	carbon source utilization, in words [9]: negative; carbon source utilization, in words [6]: negative
COC(=O)C(C)=O [Methyl pyruvate]	positive	positive	–
CC(=O)N[C@H]1C(O)O[C@H](CO)[C@@H](O)[C@@H]1O (stereo partly drawn) [N-acetyl-D-glucosamine]	positive	positive	suitability as nitrogen source (growth, purple color) (E. coli MG1655 [10]): positive
CCC(=O)O [Propionic acid]	–	positive	carbon source utilization, in words [9]: negative
O=C(O)CCC(=O)O [Succinic acid]	positive	positive	–
N[C@@H](CCC(=O)N[C@@H](CS)C(=O)NCC(=O)O)C(=O)O [glutathione (reduced form)]	–	–	suitability as nitrogen source (growth, purple color) (E. coli MG1655 [10]): not suitable; suitability as sulfur source (growth, purple color) (E. coli MG1655 [8]): positive
O=C[C@@H](O)[C@@H](O)[C@H](O)[C@H](O)COP(=O)(O)O [mannose 6-phosphate]	–	–	suitability as phosphorus source (growth, purple color) (E. coli MG1655 [8]): positive
O=P(O)(O)CP(=O)(O)O [methylene diphosphonic acid]	–	–	suitability as phosphorus source (growth, purple color) (E. coli MG1655 [8]): not suitable
CN(CC(=O)O)C(=N)NP(=O)(O)O [phosphocreatine]	–	–	suitability as phosphorus source (growth, purple color) (E. coli MG1655 [8]): positive
C=C(OP(=O)(O)O)C(=O)O [phosphoenol pyruvate]	–	–	suitability as phosphorus source (growth, purple color) (E. coli MG1655 [8]): positive
O=C(O)COP(=O)(O)O [phosphoglycolic acid]	–	–	suitability as phosphorus source (growth, purple color) (E. coli MG1655 [8]): positive
O=C(O)CP(=O)(O)O [phosphonoacetic acid]	–	–	suitability as phosphorus source (growth, purple color) (E. coli MG1655 [8]): not suitable
O=P(O)(O)OP(=O)(O)O [pyrophosphate]	–	–	suitability as phosphorus source (growth, purple color) (E. coli MG1655 [8]): not suitable
O=C(O)[C@]1(O)C[C@@H](O)[C@@H](O)[C@H](O)C1 [quinic acid]	positive	negative	–
O=C(O)CCCCCCCCC(=O)O [sebacic acid]	positive	negative	–
NC(=O)CCC(=O)O [succinamic acid]	positive	–	–
NCCS(=O)(=O)O [taurine]	–	–	suitability as sulfur source (growth, purple color) (E. coli MG1655 [8]): positive
C[C@H](CCC(=O)NCCS(=O)(=O)O)[C@H]1CC[C@H]2[C@@H]3[C@H](O)C[C@@H]4C[C@H](O)CC[C@]4(C)[C@H]3C[C@H](O)[C@]12C [taurocholic acid]	–	–	suitability as sulfur source (growth, purple color) (E. coli MG1655 [8]): positive
O=S1(=O)CCCC1 [tetramethylene sulfone]	–	–	suitability as sulfur source (growth, purple color) (E. coli MG1655 [8]): not suitable

Compound	carbon source utilization result (T. harzianum DAOM 190830)	carbon source utilization result [1]	other results
O=S(=O)(O)SSS(=O)(=O)O [tetrathionate]	–	–	suitability as sulfur source (growth, purple color) (E. coli MG1655 [8]): positive
O=C(O)CS [thioglycolic acid]	–	–	suitability as sulfur source (growth, purple color) (E. coli MG1655 [8]): not suitable
OP(O)(O)=S [thiophosphate]	–	–	suitability as phosphorus source (growth, purple color) (E. coli MG1655 [8]): positive; suitability as sulfur source (growth, purple color) (E. coli MG1655 [8]): positive
O=S(O)(O)=S [thiosulfate]	–	–	suitability as sulfur source (growth, purple color) (E. coli MG1655 [8]): positive
Cc1cn([C@H]2C[C@H](OP(=O)(O)O)[C@@H](CO)O2)c(=O)[nH]c1=O [thymidine 3′-monophosphate]	–	–	suitability as phosphorus source (growth, purple color) (E. coli MG1655 [8]): positive
Cc1cn([C@H]2C[C@H](O)[C@@H](COP(=O)(O)O)O2)c(=O)[nH]c1=O [thymidine 5′-monophosphate]	–	–	suitability as phosphorus source (growth, purple color) (E. coli MG1655 [8]): positive
O=P(O)(O)OP(=O)(O)OP(=O)(O)O [tripolyphosphate]	–	–	suitability as phosphorus source (growth, purple color) (E. coli MG1655 [8]): not suitable
O=c1ccn([C@@H]2O[C@H](CO)[C@@H](O)[C@H]2OP(=O)(O)O)c(=O)[nH]1 [uridine 2′-monophosphate]	–	–	suitability as phosphorus source (growth, purple color) (E. coli MG1655 [8]): positive
OC[C@H]1O[C@H](O)[C@H](O)[C@@H](O)[C@@H]1O [α-D-glucose]	positive	positive	–
CCC(O)C(=O)O (stereo not drawn) [α-hydroxy butyric acid]	–	–	carbon source utilization, in words [9]: negative
CCC(=O)C(=O)O [α-ketobutyric acid]	–	positive	carbon source utilization, in words [9]: negative
O=C(O)CCC(=O)C(=O)O [α-ketoglutaric acid]	positive	–	–
O=P(O)(O)OC(CO)CO [β-glycerophosphate]	–	–	suitability as phosphorus source (growth, purple color) (E. coli MG1655 [8]): positive
CC(O)CC(=O)O (stereo not drawn) [β-hydroxybutyric acid]	positive	negative	–
NCCCC(=O)O [γ-aminobutyric acid]	positive	–	suitability as nitrogen source (growth, purple color) (E. coli MG1655 [10]): weak positive; also recorded: not suitable
dextrin	positive	positive	–
gentiobiose	positive	positive/negative	–
glycogen	positive	–	–
phosphatidyl glycerol	–	–	suitability as phosphorus source (growth, purple color) (E. coli MG1655 [8]): not suitable
